Results: paper PMC10931745 (International Journal of Molecular Sciences, 2024)

Tests used:
MCF-7 = assay: MTT cell viability assay; assay type: cell-based, human; settings: 72 h
Procedure: (§1) The cell lines used were purchased from American Type Culture Collection (ATCC, Manassas, VA, USA). Human breast cancer cells MCF-7 and MDA-MB-231, human mammary epithelial cell line MCF-10A, and mouse BALB/3T3 embryonic fibroblasts were cultured as already described by some of us. The murine macrophage cell line RAW 264.7 was maintained in Dulbecco’s Modified Eagle’s Medium (DMEM) high glucose (4.5 g/L) supplemented with 10% Fetal Bovine Serum (FBS), 1% L-glutamine, and 100 units/mL of penicillin/streptomycin. The cell cultures were maintained at the temperature of 37 °C in a humidified atmosphere containing 5% CO2.
(§2) The 3-(4,5-dimethylthiazol-2-yl)-2,5-diphenyl-2H-tetrazolium bromide (MTT) assay (Sigma Aldrich (St. Louis, MO, USA)) was carried out to study the in vitro anticancer activities of the complexes, following the previously reported protocol. The cells were incubated for 72 h with different concentrations of the tested compounds (0.1, 1, 10, 25, 50, 100, and 500 µM) and the IC50 values were calculated from the percent (%) of control using the software GraphPad Prism 9 (GraphPad Software, La Jolla, CA, USA).

MDA-MB-231 = assay: MTT cell viability assay; assay type: cell-based, human; settings: 72 h
Procedure: as §1, §2

[1] = system: human mammary epithelial cell line MCF-10A; assay: MTT assay, toxicity towards normal cells; assay type: cell-based; settings: 72 h
Procedure: as §1, §2

[2] = system: ROS production in BALB/3T3 fibroblasts; assay: Intracellular ROS detection with DCFH2-DA; assay type: cell-based, murine; settings: 25 µM, 24 h pre-treatment
Procedure: In vitro detection of intracellular ROS on fibroblasts BALB/3T3 using DCFH2-DA The assay to evaluate the in vitro antioxidant activity was carried out using the murine BALB/3T3 fibroblasts that were plated in a white 96 MW and then treated with the complexes at a concentration of 25 µM for 24 h. Menadione (25 µM) was then added for 15 min to induce ROS production. After treatment, the cells were washed with PBS and treated with 25 μM 2′-7′-dichlorofluorescein diacetate (DCFH2-DA, Sigma-Aldrich, St. Louis, MO, USA), and then they were incubated for 40 min at 37 °C and 5% CO2. The probe DCFH2-DA penetrates cells where it is […] into a non-fluorescent form (DCFH2) by endogenous esterases. In the presence of intracellular ROS, non-fluorescent H2DCF is oxidized to the fluorescent 2′,7′-dichlorofluorescein (DCF). Then, the cells were washed with PBS and the fluorescence was detected using a multiplate reader (λex = 485 nm, λem = 535 nm). Based on the obtained fluorescence values, the ROS production inhibition % (IROS) vs. menadione was calculated using the following formula:(1) IROS vs. Menadione (%)=FMen−FSample/FMen∗100 where FMen represents the mean fluorescence obtained after treatment with menadione alone and Fsample represents the mean fluorescence obtained after the co-treatment with the complexes and menadione.

[3] = ABTS radical scavenging assay; assay type: biochemical
Procedure: The radical scavenging properties of the complexes on a 2,20-azino-bis(3-ethylbenzothiazoline-6-sulfonate) radical cation (ABTS^+) were evaluated as previously described.
All the complexes were used at different concentrations (5, 10, 25, 50, and 100 µg/mL) and the ABTS radical scavenging activity, measured at 730 nm using a microplate reader, was expressed as inhibition percentages (%IABTS) compared tothe control, according to the following expression:(3) IABTS (%)=ABSCTRL−ABSsample/ABSCTRL∗100 where ABSCTRL and ABSsample are the absorbance at 730 nm in the control and in the presence of samples, respectively.
IC50 values were calculated from the %IABTS using GraphPad Prism 9 software (GraphPad Inc., San Diego, CA, USA). Trolox was employed as a positive control, while caffeine and theophylline were reference compounds.

[4] = system: Escherichia coli (ATCC 25922); assay: MIC/MBC broth dilution; assay type: cell-based
Procedure: (§3) The bacterial strains used for MIC and MBC value determinations expressed as µg/mL by the broth dilution method, according to CLSI guidelines, were the following:
(§4) -4 Gram-negative: Escherichia coli (ATCC® 25922^TM) and Klebsiella pneumoniae (ATCC® 13883^TM);
(§5) Increasing concentrations of the complexes (50, 70, 100, 150, and 200 µg/mL) were incubated with bacteria plated in 96-well microplates at 37 °C overnight as already reported, and then bacterial growth was checked at a wavelength of 600 nm using a Multiskan spectrophotometer (model Multiskan Ex Microplate; Thermo Scientific, Nyon, Switzerland). MIC or MBC values were obtained by comparing cell density with a positive control (bacterial cells grown in LB medium were added with only the vehicle, DMSO). The results were representative of three independent experiments performed in triplicate. Ampicillin, Gentamicin, and Cephalosporin (Sigma Aldrich A9393) were used as the control for strain sensitivity.

[5] = system: Klebsiella pneumoniae (ATCC 13883); assay: MIC/MBC broth dilution; assay type: cell-based
Procedure: as §3, §4, §5

[6] = system: Enterococcus faecalis (ATCC 19433); assay: MIC/MBC broth dilution; assay type: cell-based
Procedure: as §3
(§6) -3 Gram-positive: Enterococcus faecalis (ATCC® 19433^TM), Staphylococcus aureus (ATCC® 23235^TM), and Staphylococcus epidermidis (ATCC® 14990™).
as §5

[7] = system: Staphylococcus aureus (ATCC 23235); assay: MIC/MBC broth dilution; assay type: cell-based
Procedure: as §3, §6, §5

[8] = system: Staphylococcus epidermidis (ATCC 14990); assay: MIC/MBC broth dilution; assay type: cell-based
Procedure: as §3, §6, §5

Cn1c(=O)c2c(n(C)[c]([Au-][I])[n+]2CC(O)c2ccccc2)n(C)c1=O (racemic) [AuL1, 1,3,7-Trimethylxanthin-9-[(2-hydroxy-2-phenyl)ethyl-8-ylidene]Au(I) Iodide]
IC50 (MCF-7): 73.8 ± 1.1 µM | IC50 (MDA-MB-231): 14.7 ± 1.1 µM | IC50 [1]: > 100 µM | ROS level reduction vs. menadione [2]: approximately 69% | IC50 [3]: 161 ± 1 µM | M.B.C. E. coli [4]: > 200 µg/mL | M.I.C. E. coli [4]: 150 µg/mL | M.B.C. K. pneumoniae [5]: > 200 µg/mL | M.I.C. K. pneumoniae [5]: 150 µg/mL | M.B.C. E. faecalis [6]: > 200 µg/mL | M.I.C. E. faecalis [6]: 150 µg/mL | M.B.C. S. aureus [7]: > 200 µg/mL | M.I.C. S. aureus [7]: 150 µg/mL | M.B.C. S. epidermidis [8]: > 150 µg/mL | M.I.C. S. epidermidis [8]: 125 µg/mL

CC(=O)[O][Ag-][c]1n(C)c2c(c(=O)n(C)c(=O)n2C)[n+]1C1CCCCC1O (stereo not drawn) [AgL2OAc, 1,3,7-Trimethylxanthin-9-[cyclohexan-2-ol-8-ylidene]Ag(I) Acetate]
IC50 (MCF-7): 28.7 ± 1 µM | IC50 (MDA-MB-231): 19.4 ± 1 µM | IC50 [1]: > 100 µM | ROS level reduction vs. menadione [2]: ~59% | IC50 [3]: 145.4 ± 1.1 µM | M.B.C. E. coli [4]: > 150 µg/mL | M.I.C. E. coli [4]: 100 µg/mL | M.B.C. K. pneumoniae [5]: > 150 µg/mL | M.I.C. K. pneumoniae [5]: 125 µg/mL | M.B.C. E. faecalis [6]: > 200 µg/mL | M.I.C. E. faecalis [6]: 150 µg/mL | M.B.C. S. aureus [7]: > 150 µg/mL | M.I.C. S. aureus [7]: 100 µg/mL | M.B.C. S. epidermidis [8]: > 125 µg/mL | M.I.C. S. epidermidis [8]: 100 µg/mL
